Source: the NIST ThermoML archive (doi:10.1021/je1011339)
Numbers after ± are expanded uncertainties.

What was measured:
[1] = 298.15 K; 101.33 kPa; Liquid; Vibrating tube method
[2] = refractive index (Na D-line) (dimensionless); conditions: 298.15 K; 101.33 kPa; Liquid; Standard Abbe refractometry

| SMILES | mass density [1] | refractive index [2] |
| --- | --- | --- |
| CCCCCCCCCCn1cc[n+](C)c1.O=S(=O)([N-]S(=O)(=O)C(F)(F)F)C(F)(F)F | 1278.4 ± 0.23 kg/m3 | 1.43584 ± 0.00033 |
| CCn1cc[n+](C)c1.O=S(=O)([N-]S(=O)(=O)C(F)(F)F)C(F)(F)F | 1518.91 ± 0.36 kg/m3 | 1.42298 ± 0.00068 |
| CCCCCC[n+]1ccn(C)c1.O=S(=O)([N-]S(=O)(=O)C(F)(F)F)C(F)(F)F | 1372.09 ± 0.28 kg/m3 | 1.42879 ± 0.00033 |
| C=CC(C)(O)CCC=C(C)C (stereo not given) [3,7-dimethyl-1,6-octadien-3-ol] | 856.83 ± 1.4 kg/m3 | 1.45961 ± 0.00068 |
| C=C(C)[C@H]1CC=C(C)CC1 [(R)-1-methyl-4-(1-methylethenyl)cyclohexene] | 838.68 ± 1.4 kg/m3 | 1.47081 ± 0.00068 |
